According to ChEMBL document CHEMBL1933060, “Discovery of novel 5-alkynyl-4-anilinopyrimidines as potent, orally active dual inhibitors of EGFR and Her-2 tyrosine kinases” (Bioorg Med Chem Lett, 2012):
The source made the active and inactive calls. No cut-off for these calls is given here.

Legend:
[1] = target: Receptor tyrosine-protein kinase erbB-2 (Homo sapiens, UniProt P04626); test: Inhibition of Her-2 by time-resolved fluorescence assay
[2] = target: Epidermal growth factor receptor (Homo sapiens, UniProt P00533); test: Inhibition of EGFR by time-resolved fluorescence assay
BT-474 = test: Antiproliferative activity against human BT474 cells after 3 days by methylene blue staining; assay type: functional, cell-based; details: BT-474, 72 h
NCI-N87 [3] = test: Antiproliferative activity against human NCI-N87 cells after 3 days by methylene blue staining; assay type: functional, cell-based; details: NCI-N87, 72 h
NCI-N87 [4] = test: Antitumor activity against human NCI-N87 cells xenografted in athymic mouse assessed as tumor growth inhibition at 20 mg/kg, po QD for 14 days measured after 19 days; assay type: functional, organism-based; design: dose 20 mg/kg
NCI-N87 [5] = test: Antitumor activity against human NCI-N87 cells xenografted in athymic mouse assessed as tumor volume at 20 mg/kg, po QD for 14 days measured after 19 days relative to control; assay type: functional
NCI-N87 [6] = test: Antitumor activity against human NCI-N87 cells xenografted in athymic mouse assessed as tumor volume at 80 mg/kg, po QD for 14 days measured after 19 days relative to control; assay type: functional
[7] = Metabolic stability of the compound in rat liver microsomes assessed as compound remaining after 30 mins; assay type: ADME, Microsome; details: read-out: Stability
[8] = AUC in po dosed rat; assay type: ADME, organism-based; details: plasma
Insulin receptor = Insulin receptor (Homo sapiens, UniProt P06213); test: Inhibition of INSR
NCI-N87 [9] = test: Antitumor activity against human NCI-N87 cells xenografted in athymic mouse assessed as tumor growth inhibition at 80 mg/kg, po QD for 14 days measured after 19 days; assay type: functional, organism-based; design: dose 80 mg/kg
[10] = target: Tyrosine-protein kinase Lck (Homo sapiens, UniProt P06239); test: Inhibition of Lck
[11] = Metabolic stability of the compound in human liver microsomes assessed as compound remaining after 30 mins; assay type: ADME, Microsome; details: read-out: Stability
Aurora kinase A = target: T1, Aurora kinase A (Homo sapiens, UniProt O14965); test: Inhibition of Aurora A
T1 sequence (O14965 whole entry): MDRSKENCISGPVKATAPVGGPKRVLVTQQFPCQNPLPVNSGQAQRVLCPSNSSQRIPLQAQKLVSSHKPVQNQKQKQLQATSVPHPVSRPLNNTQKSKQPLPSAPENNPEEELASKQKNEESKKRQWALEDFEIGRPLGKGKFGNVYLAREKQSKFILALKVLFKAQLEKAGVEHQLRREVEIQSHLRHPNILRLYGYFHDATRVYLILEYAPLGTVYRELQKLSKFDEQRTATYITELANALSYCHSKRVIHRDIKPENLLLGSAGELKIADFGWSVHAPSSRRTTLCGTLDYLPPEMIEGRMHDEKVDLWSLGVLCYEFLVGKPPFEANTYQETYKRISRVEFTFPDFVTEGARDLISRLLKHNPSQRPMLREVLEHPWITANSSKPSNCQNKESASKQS

[12] = Aqueous solubility of the compound at pH 7.4; assay type: physicochemical
[13] = Oral bioavailability in rat; assay type: ADME, organism-based; details: in vivo
[14] = target: Vascular endothelial growth factor receptor 2 (Homo sapiens, UniProt P35968); test: Inhibition of VEGFR2
[15] = target: Platelet-derived growth factor receptor beta (Homo sapiens, UniProt P09619); test: Inhibition of PDGFRbeta
[16] = Total clearance in iv dosed rat; assay type: ADME, organism-based; details: in vivo

Chain of Epidermal growth factor receptor (P00533 whole entry): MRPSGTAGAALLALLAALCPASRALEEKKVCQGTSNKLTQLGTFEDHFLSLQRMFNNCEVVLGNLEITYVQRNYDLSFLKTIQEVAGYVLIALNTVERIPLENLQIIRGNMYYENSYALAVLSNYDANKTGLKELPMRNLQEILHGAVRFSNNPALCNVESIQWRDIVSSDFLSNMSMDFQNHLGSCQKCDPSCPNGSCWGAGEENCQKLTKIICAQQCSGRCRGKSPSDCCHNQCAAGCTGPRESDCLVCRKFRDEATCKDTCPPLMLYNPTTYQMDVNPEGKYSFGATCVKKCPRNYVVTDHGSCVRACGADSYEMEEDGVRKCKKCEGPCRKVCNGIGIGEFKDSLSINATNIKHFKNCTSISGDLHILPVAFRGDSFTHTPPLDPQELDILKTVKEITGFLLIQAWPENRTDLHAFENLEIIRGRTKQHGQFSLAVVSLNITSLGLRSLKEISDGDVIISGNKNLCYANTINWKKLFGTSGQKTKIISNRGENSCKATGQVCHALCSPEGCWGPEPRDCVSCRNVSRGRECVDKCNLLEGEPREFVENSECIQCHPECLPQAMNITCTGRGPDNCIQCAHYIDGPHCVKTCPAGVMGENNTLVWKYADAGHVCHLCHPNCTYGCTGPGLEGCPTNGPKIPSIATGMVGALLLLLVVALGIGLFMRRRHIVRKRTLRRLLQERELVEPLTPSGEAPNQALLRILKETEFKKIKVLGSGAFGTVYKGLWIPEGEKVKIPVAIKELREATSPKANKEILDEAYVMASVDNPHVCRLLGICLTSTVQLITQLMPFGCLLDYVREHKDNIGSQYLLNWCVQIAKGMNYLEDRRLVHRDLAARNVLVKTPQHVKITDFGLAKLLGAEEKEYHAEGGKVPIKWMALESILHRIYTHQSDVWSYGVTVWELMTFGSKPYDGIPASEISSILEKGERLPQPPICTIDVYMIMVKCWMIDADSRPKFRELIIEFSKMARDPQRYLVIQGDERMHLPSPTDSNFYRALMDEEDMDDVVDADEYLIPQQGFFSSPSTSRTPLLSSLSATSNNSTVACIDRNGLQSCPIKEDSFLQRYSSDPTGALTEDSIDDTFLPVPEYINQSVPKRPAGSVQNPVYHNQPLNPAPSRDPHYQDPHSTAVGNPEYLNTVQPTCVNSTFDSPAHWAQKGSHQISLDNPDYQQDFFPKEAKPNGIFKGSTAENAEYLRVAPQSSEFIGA
Chain of Receptor tyrosine-protein kinase erbB-2 (P04626 whole entry): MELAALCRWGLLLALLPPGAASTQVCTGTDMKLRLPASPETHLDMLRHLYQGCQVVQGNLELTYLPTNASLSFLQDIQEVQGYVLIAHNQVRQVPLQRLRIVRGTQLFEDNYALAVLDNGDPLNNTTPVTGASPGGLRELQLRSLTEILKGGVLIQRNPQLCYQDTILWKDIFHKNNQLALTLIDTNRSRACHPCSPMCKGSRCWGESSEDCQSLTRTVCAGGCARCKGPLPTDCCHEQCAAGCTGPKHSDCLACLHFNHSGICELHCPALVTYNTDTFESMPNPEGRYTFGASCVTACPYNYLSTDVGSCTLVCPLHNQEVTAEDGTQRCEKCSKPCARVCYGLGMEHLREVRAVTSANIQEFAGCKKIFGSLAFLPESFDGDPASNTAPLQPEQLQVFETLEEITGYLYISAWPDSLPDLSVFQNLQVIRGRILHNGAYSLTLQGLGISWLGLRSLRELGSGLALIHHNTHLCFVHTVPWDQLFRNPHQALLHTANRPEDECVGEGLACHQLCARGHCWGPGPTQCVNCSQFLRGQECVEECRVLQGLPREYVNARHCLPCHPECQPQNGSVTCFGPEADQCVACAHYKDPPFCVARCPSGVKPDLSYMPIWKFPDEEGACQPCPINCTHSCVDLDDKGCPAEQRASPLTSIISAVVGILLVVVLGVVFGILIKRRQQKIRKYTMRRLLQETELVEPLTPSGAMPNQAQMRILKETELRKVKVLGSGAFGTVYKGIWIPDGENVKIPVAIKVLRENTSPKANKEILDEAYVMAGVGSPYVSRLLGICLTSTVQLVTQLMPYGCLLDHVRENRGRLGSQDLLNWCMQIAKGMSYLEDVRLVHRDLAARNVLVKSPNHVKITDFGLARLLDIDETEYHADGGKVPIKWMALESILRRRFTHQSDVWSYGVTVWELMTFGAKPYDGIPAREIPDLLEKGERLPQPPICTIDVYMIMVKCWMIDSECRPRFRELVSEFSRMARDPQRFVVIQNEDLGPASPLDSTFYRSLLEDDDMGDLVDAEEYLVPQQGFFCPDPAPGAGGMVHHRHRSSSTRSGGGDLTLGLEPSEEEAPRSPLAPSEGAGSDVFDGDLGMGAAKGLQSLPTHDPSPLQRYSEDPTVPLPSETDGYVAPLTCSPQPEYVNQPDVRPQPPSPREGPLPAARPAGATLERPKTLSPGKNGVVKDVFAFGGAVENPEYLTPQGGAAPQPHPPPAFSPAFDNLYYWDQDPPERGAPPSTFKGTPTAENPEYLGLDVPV
Chain of Insulin receptor (P06213 28-758 limits assumed): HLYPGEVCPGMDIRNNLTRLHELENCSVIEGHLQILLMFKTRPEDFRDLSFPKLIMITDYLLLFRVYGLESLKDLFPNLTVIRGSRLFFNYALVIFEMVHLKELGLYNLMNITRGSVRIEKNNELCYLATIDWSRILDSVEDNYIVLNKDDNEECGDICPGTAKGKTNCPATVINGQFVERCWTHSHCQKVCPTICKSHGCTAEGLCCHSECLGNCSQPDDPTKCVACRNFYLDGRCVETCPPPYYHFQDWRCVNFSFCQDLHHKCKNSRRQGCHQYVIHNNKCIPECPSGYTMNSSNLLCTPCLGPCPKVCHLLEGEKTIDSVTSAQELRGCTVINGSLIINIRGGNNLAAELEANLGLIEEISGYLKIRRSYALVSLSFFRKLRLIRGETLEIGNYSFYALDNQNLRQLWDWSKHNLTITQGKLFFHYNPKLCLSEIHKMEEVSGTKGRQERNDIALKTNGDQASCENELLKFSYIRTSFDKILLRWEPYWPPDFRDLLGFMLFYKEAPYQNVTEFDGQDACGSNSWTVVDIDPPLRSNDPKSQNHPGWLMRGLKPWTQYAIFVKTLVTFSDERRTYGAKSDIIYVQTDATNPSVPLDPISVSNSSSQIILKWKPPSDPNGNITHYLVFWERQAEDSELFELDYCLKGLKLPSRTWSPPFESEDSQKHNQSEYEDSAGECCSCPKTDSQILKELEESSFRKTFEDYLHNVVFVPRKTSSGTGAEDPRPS
Chain of Insulin receptor (P06213 763-1382 limits assumed): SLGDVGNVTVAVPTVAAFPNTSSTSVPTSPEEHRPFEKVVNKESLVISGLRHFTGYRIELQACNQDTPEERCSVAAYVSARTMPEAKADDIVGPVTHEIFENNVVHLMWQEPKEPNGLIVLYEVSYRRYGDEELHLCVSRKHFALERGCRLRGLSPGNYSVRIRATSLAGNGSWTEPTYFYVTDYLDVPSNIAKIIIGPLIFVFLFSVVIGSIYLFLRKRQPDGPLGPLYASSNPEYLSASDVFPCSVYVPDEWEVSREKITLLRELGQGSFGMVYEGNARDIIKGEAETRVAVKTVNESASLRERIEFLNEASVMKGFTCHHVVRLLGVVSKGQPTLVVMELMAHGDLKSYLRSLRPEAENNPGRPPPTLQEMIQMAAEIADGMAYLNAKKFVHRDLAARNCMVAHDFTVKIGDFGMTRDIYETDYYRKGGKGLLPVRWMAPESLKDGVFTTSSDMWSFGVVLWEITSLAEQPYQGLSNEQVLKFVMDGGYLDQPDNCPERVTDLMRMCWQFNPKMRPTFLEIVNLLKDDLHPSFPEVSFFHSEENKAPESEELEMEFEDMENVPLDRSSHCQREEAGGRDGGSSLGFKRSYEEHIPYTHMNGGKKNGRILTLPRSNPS
Chain of Platelet-derived growth factor receptor beta (P09619 whole entry): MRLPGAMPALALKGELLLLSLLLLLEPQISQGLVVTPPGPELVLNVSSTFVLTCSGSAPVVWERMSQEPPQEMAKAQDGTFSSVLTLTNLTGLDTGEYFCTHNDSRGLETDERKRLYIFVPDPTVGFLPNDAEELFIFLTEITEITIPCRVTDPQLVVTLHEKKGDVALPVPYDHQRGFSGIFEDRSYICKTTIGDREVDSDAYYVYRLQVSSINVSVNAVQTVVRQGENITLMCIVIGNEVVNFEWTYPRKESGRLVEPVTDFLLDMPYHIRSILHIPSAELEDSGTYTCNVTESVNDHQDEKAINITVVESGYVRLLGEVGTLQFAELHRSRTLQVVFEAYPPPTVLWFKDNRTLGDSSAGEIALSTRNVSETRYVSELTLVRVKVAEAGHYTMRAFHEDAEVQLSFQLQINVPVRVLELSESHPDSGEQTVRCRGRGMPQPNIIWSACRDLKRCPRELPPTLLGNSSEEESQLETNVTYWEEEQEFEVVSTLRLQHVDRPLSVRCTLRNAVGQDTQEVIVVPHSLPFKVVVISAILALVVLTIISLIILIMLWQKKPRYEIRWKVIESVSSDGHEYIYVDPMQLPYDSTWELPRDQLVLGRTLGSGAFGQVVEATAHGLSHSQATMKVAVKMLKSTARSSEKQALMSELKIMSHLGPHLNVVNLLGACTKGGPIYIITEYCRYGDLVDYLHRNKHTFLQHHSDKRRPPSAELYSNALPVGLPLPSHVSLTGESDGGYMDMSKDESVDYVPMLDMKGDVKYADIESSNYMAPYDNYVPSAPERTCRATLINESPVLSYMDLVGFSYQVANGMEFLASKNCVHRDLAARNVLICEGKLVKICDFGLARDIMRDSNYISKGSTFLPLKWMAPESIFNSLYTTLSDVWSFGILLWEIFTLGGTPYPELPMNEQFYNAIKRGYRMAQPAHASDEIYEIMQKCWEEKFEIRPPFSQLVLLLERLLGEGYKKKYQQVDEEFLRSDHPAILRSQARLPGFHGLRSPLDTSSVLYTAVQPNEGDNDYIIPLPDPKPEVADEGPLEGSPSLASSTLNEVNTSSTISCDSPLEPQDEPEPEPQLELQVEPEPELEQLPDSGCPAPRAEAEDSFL

Compound	IC50 [1] [nM]	IC50 [2] [nM]	IC50 (BT-474) [nM]	IC50 (NCI-N87 [3]) [nM]	further results
Cc1ncnc(Nc2ccc(OCc3cccc(F)c3)c(Cl)c2)c1C#Cc1ccc(CN(C)C)cc1	41	7	–	–	–
Cc1ncnc(Nc2ccc(OCc3cccc(F)c3)c(Cl)c2)c1C#Cc1ncc(CN2CCCC2)s1	110	74	–	–	–
Cc1ncnc(Nc2ccc(OCc3cccc(F)c3)c(Cl)c2)c1C#CCOc1ccc(CNC(C)C)cc1	130	86	–	–	–
CS(=O)(=O)CCNCc1ccc(-c2ccc3ncnc(Nc4ccc(OCc5cccc(F)c5)c(Cl)c4)c3c2)o1 [LAPATINIB]	–	–	100	90	–
Cc1ncnc(Nc2ccc(OCc3cccc(F)c3)c(Cl)c2)c1C#Cc1cccc(CN(C)C)c1	73	55	–	–	–
Cc1ncnc(Nc2ccc(OCc3cccc(F)c3)c(Cl)c2)c1C#Cc1ccc(CN2CCCC2)s1	180	30	410	690	–
Cc1ncnc(Nc2ccc(OCc3cccc(F)c3)c(Cl)c2)c1C#Cc1ccc(CN2CCCC2)o1	140	79	810	1360	–
Cc1ncnc(Nc2ccc(OCc3cccc(F)c3)c(Cl)c2)c1/C=C/c1ccc(CNC2CC2)cc1	86	98	–	–	–
Cc1ncnc(Nc2ccc(OCc3cccc(F)c3)c(Cl)c2)c1C#Cc1ccccc1	750	650	–	–	–
Cc1ncnc(Nc2ccc(OCc3cccc(F)c3)c(Cl)c2)c1C#Cc1ccc(CN2CCCC2)cc1	41	9	–	–	–
Cc1ncnc(Nc2ccc(OCc3cccc(F)c3)c(Cl)c2)c1C#Cc1ccc(CNCCS(C)(=O)=O)cc1	220	22	–	–	–
Cc1ncnc(Nc2ccc(OCc3cccc(F)c3)c(Cl)c2)c1C#Cc1ccc(CNC(C)C)cc1	18	3	170	240	–
CS(=O)(=O)CCNCc1ccc(-c2ccc3ncnc(Nc4ccc(OCc5cccc(F)c5)c(Cl)c4)c3c2)o1	–	–	–	–	growth inhibition (GI) (NCI-N87 [4]): Active
Cc1ncnc(Nc2ccc(OCc3cccc(F)c3)c(Cl)c2)c1/C=C/c1ccc(CNC(C)C)cc1	30	24	–	–	–
CS(=O)(=O)CCNCc1ccc(-c2ccc3ncnc(Nc4ccc(OCc5cccc(F)c5)c(Cl)c4)c3c2)o1.Cc1ccc(S(=O)(=O)O)cc1.Cc1ccc(S(=O)(=O)O)cc1.O [LAPATINIB DITOSYLATE]	–	–	–	–	T/C (NCI-N87 [5]): 0.57; T/C (NCI-N87 [6]): 0.37
Cc1ncnc(Nc2ccc(OCc3cccc(F)c3)c(Cl)c2)c1C#Cc1ccc(CN2CCCC2)c(F)c1	62	190	50	60	remaining at 0.5 h [7]: 63%; AUC [8]: 361 ng·h/mL; IC50 (Insulin receptor): > 100000 nM; growth inhibition (GI) (NCI-N87 [9]): Active; IC50 [10]: > 100000 nM; remaining at 0.5 h [11]: 24%; IC50 (Aurora kinase A): > 100000 nM; solubility [12]: > 50 µM; growth inhibition (GI) (NCI-N87 [4]): Active; bioavailability [13]: 35%; IC50 [14]: > 100000 nM; IC50 [15]: > 100000 nM; clearance [16]: 18 mL/min/kg; T/C (NCI-N87 [5]): 0.56; T/C (NCI-N87 [6]): 0.54
Cc1ncnc(Nc2ccc(OCc3cccc(F)c3)c(Cl)c2)c1/C=C/c1ccc(CNCCS(C)(=O)=O)cc1	120	–	640	780	–
